Data: publication PMC9645390, “Amphiphilic stilbene derivatives attenuate the neurotoxicity of soluble Aβ42 oligomers by controlling their interactions with cell membranes” (Chemical Science, 2022)

Key:
[1] = Log D by octanol-PBS partition assay; format: physicochemical; details: pH 7.4, fluorescence readout
Method: In order to confirm that the compounds can also bind to native Aβ species, brain sections collected from 9-month-old 5xFAD transgenic mice have been employed in the fluorescence imaging studies. […] The brain sections were first incubated with our compounds, followed by Congo Red (CR), which is a well-established fluorescent probe that can bind to Aβ plaques.[34] The treated brain sections were then imaged using fluorescence microscope. […] Immunostaining with the CF594-conjugated HJ 3.4 antibody (CF594-HJ3.4) was also performed to confirm that these six compounds can bind to Aβ species specifically in the brain sections (Fig. 5). Moreover, the log D values of the compounds were also measured by octanol-PBS partition assays.[35] […]
The Log D value was measured following a published procedure using slight modifications.4 In general, compounds in 0.5 mL octanol was subjected to partition with 0.5 mL octanol-saturated
PBS. The whole mixture was stirred vigorously for 5 min, and centrifuged at 2,000 rpm for 5 min.
The top octanol layer was separated for later fluorescence measurement. The remaining PBS layer was partitioned with 0.5 mL PBS-saturated octanol, and the second top octanol layer was then separated after vigorous stirring and centrifuging at 2,000 rpm for another 5 min. The two octanol layers’ fluorescence spectra were recorded. The log D value was calculated by the fluorescence intensity ratio at the compounds’ emission wavelength for the above two octanol extractions. […]

[2] = system: Cu2+–Aβ42 species in Neuro2A cells; experiment: Cu2+-Aβ42-induced toxicity in Neuro2A cells (Alamar Blue); format: cell-based, mouse; details: [Aβ42] = [Cu2+] = 40 μM, compound 10 μM (ZY-12-OMe 5 μM), 40 h
Method: As mentioned above, compounds that are not cytotoxic at 10 μM, including ZY-12-MT, ZY-15-MT, ZY-15-OMe, ZY-17-MT, ZY-5-MT, ZY-5-DT, ZY-5-OMe, and ZY-12-OMe, were chosen for this study. Firstly, during the control studies, we observed that monomeric Aβ42 led to negligible neurotoxicity. Nevertheless, in the presence of both Cu^2+ and monomeric Aβ42, there was a significant cell death, which is likely due to the Cu^2+ associated neurotoxic Aβ42 oligomers formation.[46] […] According to the docking results, ZY-12-MT, ZY-15-OMe, ZY-15-MT, and ZY-5-OMe interact with Aβ42 tetramers mainly through residues His6, Asp7, Tyr10 (via hydrogen bonds), and Tyr10 (via π–π interactions). Some reports have also shown that His6, Asp7, and Tyr10 are potentially involved in the Cu–Aβ interactions, which explains why the compounds are able to attenuate the Cu–Aβ toxicity.[48]
Fig. 9 Cell viability results upon incubation of Neuro2A cells with monomeric Aβ42 in the presence or absence of metal ions and amphiphilic compounds. Concentrations: [Aβ42] = 40 μM, [Cu^2+] = 40 μM, [ZY-12-MT] = [ZY-15-OMe] = [ZY-15-MT] = [ZY-17-MT] = [ZY-5-OMe] = [ZY-5-MT] = [ZY-5-DT] = 10 μM, [ZY-12-OMe] = 5 μM. The error bars represent the standard deviation from five independent experiments, and the statistical analysis was evaluated according to one-way ANOVA (*p < 0.05).
Alamar Blue assay was chosen for the cytotoxicity studies.3 Mouse neuroblastoma Neuro2A (N2A) cells were grown with DMEM/10% FBS in a petri dish at 37 °C in a humidified atmosphere with 5% CO2. Then N2A cells were seeded in a 96-well plate (1.0 × 10^4/well). After 24 h incubation, cell media was changed to DMEM/N-2, and N2A cells were incubated for another 1 h. […]
For the Cu2+-Aβ-induced toxicity studies, cells were treated monomeric Aβ42, Cu2+, monomeric Aβ42 + Cu2+, and monomeric Aβ42 + Cu2+ + compounds, monomeric Aβ42 + Cu2+ + copper chelators (Me2HTACN or Me3TACN), respectively. After 40 h incubation, Alamar Blue solution (10 μL) was added, and the cells were incubated for another 90 min at 37 °C. The fluorescence intensity of each well was measured at 590 nm (excitation wavelength = 560 nm). […]
10. The effect of copper chelators on Cu2+-Aβ42 neurotoxicity
Figure S8. Cell viability results upon incubation of Neuro2A cells with 10 μM copper chelators (Me2HTACN or Me3TACN) in the presence or absence of 40 μM (Aβ42 + Cu2+). The error bars represent the standard deviation from five independent experiments, and the statistical analysis was evaluated according to one-way ANOVA. […]

Aβ42 oligomers = biological target: T1, Aβ42 oligomers (Homo sapiens, UniProt P05067); experiment: Fluorescence saturation binding assay with Aβ42 oligomers; details: for Kd / binding ratio, Oligomers: Aβ42 oligomers; for Kd: 10 mM PBS pH 7.4, one site-specific binding model; for binding ratio, Oligomers: from cross point between plateau and initial slope; for binding preference oligomers vs fibrils (from Kd values): lower Kd for Aβ oligomers than Aβ fibrils
T1 construct: 1 mg of commercial Aβ42 monomer powder (from GL biochem) was dissolved in 1; purchased GL biochem
Method: (§1) Fig. 3 Binding constant measurements of ZY-5-OMe (left), ZY-5-MT (middle), ZY-5-DT (right) with Aβ42 fibrils (top), and oligomers (bottom). The measurements were performed in 10 mM phosphate buffered saline (PBS), pH 7.4. The Kd curves were fitted in GraphPad Prism with one site-specific binding model. Equation: Y = Bmax × X/(Kd + X). [Aβ42 fibrils] = [Aβ42 oligomers] = 5 μM.
(§2) Preparation of the Aβ42 Fibrils and Aβ42 Oligomers
(§3) Aβ42 fibrils: 1 mg of commercial Aβ42 monomer powder (from GL biochem) was dissolved in 1
(§4) mL 1,1,1,3,3,3-hexafluoro-2-propanol (HFIP) at room temperature and incubated for 1h. The
(§5) resulting solution was divided equally into two Eppendorf tubes. The solution in each Eppendorf
(§6) tube containing 0.5 mg Aβ42 monomer was then evaporated overnight and dried by vacuum
(§7) centrifuge to generate monomeric films. 100 μM Aβ42 fibrils solution was prepared by dissolving
(§8) the 0.5 mg monomeric films in 1.1 mL PBS buffer (with final DMSO concentration less than 1%)
(§9) and stiring at 37 °C for 3 days.
(§10) Aβ42 oligomers: The 0.5 mg monomeric films were dissolved in 1.1 mL PBS buffer (with final
(§11) DMSO concentration less than 1%) and incubated at 4 °C overnight. The resulting solution was
(§12) then centrifuged at 3000 rpm for 15 mins to remove the insoluble aggregates. The clear supernatant
(§13) was then used for the following experiments. […]
(§14) In Vitro Saturation Binding Studies with Aβ42 Fibrils and Aβ42 Oligomers
(§15) To a solution of increasing concentrations of compounds, a fixed concentration of the generated
(§16) aggregated Aβ42 fibrils or Aβ42 oligomers solutions (5 to 15 μM) was added to yield a total volume
(§17) of 100 μL. Nonspecific binding was determined without compounds. The mixture was incubated
(§18) for 15 min at room temperature. All fluorescence data were obtained on a SpectraMax M2e plate
(§19) reader (Molecular Devices).

Aβ42 fibrils = biological target: T2, Aβ42 fibrils (Homo sapiens, UniProt P05067); experiment: Fluorescence saturation binding assay with Aβ42 fibrils; details: Aβ42 fibrils; for Kd: 10 mM PBS pH 7.4, one site-specific binding model, read-out: Kd, Fibrils; for binding ratio, Fibrils: from cross point between plateau and initial slope
T2 construct: 1 mg of commercial Aβ42 monomer powder (from GL biochem) was dissolved in 1; purchased GL biochem
Method: as §1, §2, §3, §4, §5, §6, §7, §8, §9, §10, §11, §12, §13, §14, §15, §16, §17, §18, §19

T1 sequence (P05067 672-713 limits assumed): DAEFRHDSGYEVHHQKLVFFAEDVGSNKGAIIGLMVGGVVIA
T2 sequence (P05067 672-713 limits assumed): as above

Row | SMILES | logD [1] | effect on Cu2+–Aβ42-induced toxicity (cell viability, in words) [2] | Kd (Aβ42 oligomers) [nM] | binding ratio, Oligomers (Aβ42 oligomers) | Kd (Aβ42 fibrils) [nM] | binding ratio, Fibrils (Aβ42 fibrils) | binding preference oligomers vs fibrils (from Kd values) (Aβ42 oligomers)
1 | COc1cc(/C=C/c2ccc(-c3ccc(N(C)C)cc3)s2)cc(CN2CCN(C)CCN(C)CC2)c1O [ZY-5-OMe] | 1.18 ± 0.046 | could significantly increase cell viability | 1040 | 4.0 | 680 | 5.6 | –
2 | CN1CCN(C)CCN(Cc2cc(-c3ccc(/C=C/c4ccc(N(C)C)cc4)s3)ccc2O)CC1 [ZY-12-MT] | 0.83 ± 0.035 | could significantly increase cell viability | 6270 | 1.0 | 4190 | 1.3 | –
3 | CN1CCN(C)CCN(Cc2cc(/C=C/c3ccc(-c4ccc(C=O)cc4)s3)ccc2O)CC1 [ZY-15-MT] | 1.11 ± 0.021 | could significantly increase cell viability | 2030 | 2.5 | 530 | 10.0 | –
4 | COc1cc(/C=C/c2ccc(-c3ccc(C=O)cc3)s2)cc(CN2CCN(C)CCN(C)CC2)c1O [ZY-15-OMe] | 1.053 ± 0.002 | could significantly increase cell viability | 470 | 8.1 | 1240 | 3.0 | higher binding affinity to oligomers over fibrils
5 | COc1cc(OC)cc(-c2ccc(/C=C/c3cc(CN4CCN(C)CCN(C)CC4)c(O)c(CN4CCN(C)CCN(C)CC4)c3)cc2)c1 [ZY-17-DT] | 0.606 ± 0.032 | – | 1030 | 33.3 | 2250 | 1.1 | higher binding affinity to oligomers over fibrils
6 | COc1cc(OC)cc(-c2ccc(/C=C/c3cc(CN4CCN(C)CCN(C)CC4)c(O)c(OC)c3)cc2)c1 [ZY-17-OMe] | 0.732 ± 0.019 | – | 120 | 46.7 | 180 | 21.9 | higher binding affinity to oligomers over fibrils
